{"source": "patent US20210386714A1", "about": "“DRUG AND GENE THERAPY TO TREAT HIGH MYOPIA AND OTHER OCULAR DISORDERS WITH ENLARGED EYE GLOBES” (City University of Hong Kong, priority 2020, published 2021)", "key": {"[1]": {"system": "SREBP2 transcriptional targets and Lrp2 in mouse RPE", "experiment": "mouse RPE explant model, mRNA level by qPCR", "type": "cell-based", "source_text": "Eyes were quickly removed from the euthanized mouse and dipped in 70% ethanol for decontamination. Under a dissecting stereomicroscope, connective tissues and muscles were carefully removed. After washing twice in PBS, eyes were immersed in warm culture medium (DMEM:F12+10% FBS). Cornea was cutoff using curved scissors, and lens was pulled out gently with tweezers. Or a serrate was cut off to remove iris and cornea. Retina and optic nerve were carefully and completely removed from eye cups. Four radial cuts were made to enable flat-mounting of eye cups. Each eye cup was transferred onto the center of a floating polycarbonate nucleopore filter membrane (Whatman 110406, 0.2 Micron) placed in 6-well plates with the RPE side facing down. The freshly prepared BF175 stock solution was added to the full culture medium to a final BF175 concentration of 12.5 uM. Half of the medium was replaced with fresh medium on the second day. RPE flat-mounts were harvested at 48 hr in explant and processed for RPE isolation and RNA extraction.\nEyecups without retina and optic nerve tissues were dissected as described in the RPE explant section. Two eyes of the same mouse were pooled in one tube and processed together. RPE were incubated in papain solution (Worthington) for 15 minutes. After washing twice in warm medium, RPE were triturated with 600 μl pipette tip gently to dissociate the pigmented RPE cells from sclera. Resuspended cell solution was transferred to a clean tube and spun down at 600 g.\nRNAs were converted to cDNA using PrimeScript RT reagent kit with gDNA Eraser (Takara). qPCR was performed using PowerUp Sybr Green Master Mix (Thermofisher) on QuantStudio 3 Real-Time PCR stems (Applied Biosystems). Gapdh was used as the normalizing control. qPCR primers were listed in Supplementary Information."}, "[2]": {"system": "eye enlargement induced by Lrp2 knockdown (AAV8-Best1-Lrp2 sh1)", "experiment": "eye globe dimension measurement after subretinal co-injection in Lrp2 knockdown eyes", "type": "in vivo, mouse", "settings": "subretinal co-injection with virus at P0, BF175 12.5 uM", "experimental": "Subretinal injection into P0 (P2 for AAV-RK-viruses) neonate eyes was performed as known in the art. Approximately 0.25 μl of viruses in PBS was injected into the subretinal space using a pulled angled glass pipette controlled by a FemtoJet (Eppendorf). BF175 stock solution (25 mM in DMSO) was first mixed with Tween-20 (Sigma-Aldrich) at a ratio of 5:1 in order to help BF175 dissolve in PBS. Then the mixed solution was added to the virus to a final BF175 concentration of 12.5 uM. The vehicle treatment was virus added with the same amount of DMSO with Tween-20. For animals used for qPCR and RNA-seq, both left and right eyes were injected and used for RNA extraction. For animals used for eye size measurement or other phenotype characterizations, only the right eye of the animal was injected, and the fellow left eye was uninjected for with-in animal controls.\nCD-1 mice were sacrificed at indicated ages. Eyes were enucleated, and connective tissues and muscles were carefully removed using tweezers and scissors. Eyes were immersed in PBS in 6 cm petri dish and imaged under a Nikon SMZ800N dissection scope with 2× magnification. ED and AL were measured in imageJ and converted to millimeters. OCT"}, "[3]": {"settings": "mouse RPE explant, 12.5 uM BF175 in culture medium, 48 hr"}}, "note": "Entries after “also recorded” stand apart in the source; their conditions may differ."}
{"smiles": "CC1(C)OB(c2ccc(/C=C/c3cc(Cl)cc(Cl)c3)cc2)OC1(C)C", "note": "[BF175]", "values": [{"measurement": "mRNA level of Hmgcr", "setting": "[1]; [3]", "value": "reduced"}, {"measurement": "mRNA level of Ldlr", "setting": "[1]; [3]", "value": "reduced"}, {"measurement": "mRNA level of Lrp2 (Lrp2 gene expression in RPE)", "setting": "[1]; [3]", "value": "significantly increased"}, {"measurement": "Lrp2 sh1-induced increase in eye size", "setting": "[2]", "value": "rescued; also recorded: effectively suppressed"}]}
{"smiles": "Br.CCCc1cc(-c2nc(-c3ccc(C)cc3)cs2)ccn1", "note": "[Fatostatin, reference compound]", "values": [{"measurement": "Lrp2 gene expression in RPE", "setting": "[1]; RPE cells, Fatostatin, concentration not given", "value": "increases"}]}
